Data on 29 molecules can be found in patent US20100137313A1 (ASTRAZENECA AB, priority 2008, published 2010).

Chain of S. pneumoniae Topoisomerase IV ATPase (ParE) (Q59961 whole entry): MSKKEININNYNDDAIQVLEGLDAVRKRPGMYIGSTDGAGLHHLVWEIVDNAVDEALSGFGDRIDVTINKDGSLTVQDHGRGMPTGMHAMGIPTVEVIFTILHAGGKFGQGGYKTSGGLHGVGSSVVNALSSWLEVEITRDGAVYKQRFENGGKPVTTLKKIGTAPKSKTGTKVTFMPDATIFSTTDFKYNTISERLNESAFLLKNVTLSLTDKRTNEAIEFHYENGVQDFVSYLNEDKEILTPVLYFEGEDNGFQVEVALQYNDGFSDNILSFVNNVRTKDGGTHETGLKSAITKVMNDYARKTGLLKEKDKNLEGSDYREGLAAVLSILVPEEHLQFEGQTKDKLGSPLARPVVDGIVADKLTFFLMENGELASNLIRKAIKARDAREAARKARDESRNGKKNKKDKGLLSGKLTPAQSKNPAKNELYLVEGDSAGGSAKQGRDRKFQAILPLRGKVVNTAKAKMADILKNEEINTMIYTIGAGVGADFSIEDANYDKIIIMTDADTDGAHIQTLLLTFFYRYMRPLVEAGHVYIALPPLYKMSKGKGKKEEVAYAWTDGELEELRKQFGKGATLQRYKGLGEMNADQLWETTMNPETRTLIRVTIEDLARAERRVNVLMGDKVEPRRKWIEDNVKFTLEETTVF

The target of the test is S. pneumoniae Topoisomerase IV ATPase (ParE) (Streptococcus pneumoniae serotype 4, UniProt Q59961). Kind of test: S. pneumoniae Topoisomerase IV ATPase inhibition. It is filed as biochemical. The note with it: values marked * are an average of two or more data points, read-out: % Inh (13 μM) of S. pneumoniae Topoisomerase IV ATPase. The method in brief:
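Malachite green/ammonium molybdate phosphate detection, A650. 1.25 nM ParE, 160 μM ATP, sheared salmon sperm DNA 5 μg/ml, 20 mM Tris pH 8.0, 8.0 mM MgCl2. Controls: 2% DMSO = 0%, 20 μM EDTA = 100% inhibition; IC50 over 10 concentrations.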
`O=C(O)/C=C/c1cccc(-c2cnc(Nc3ccc(F)c(Cl)c3)nc2-n2nc(C(F)F)cc2C(F)F)c1` [Example 564, (2E)-3-(3-{4-[3,5-bis(difluoromethyl)-1H-pyrazol-1-yl]-2-[(3-chloro-4-fluorophenyl)amino]pyrimidin-5-yl}phenyl)prop-2-enoic acid]: the inhibition at 13 µM was 92%.

As to `NC(=O)c1cncc(-c2cnc(Nc3ccc(F)c(Cl)c3)nc2-n2cc(-c3ccccn3)cn2)c1` [Example 542], the inhibition at 13 µM came out at 85%. The value for `Fc1ccc(Nc2ncc(-c3cncnc3)c(N3CCCCCC3)n2)cc1Cl` [Example 213, 4-(azepan-1-yl)-N-(3-chloro-4-fluorophenyl)-5-pyrimidin-5-ylpyrimidin-2-amine] was 55.8%; that for `O=C(O)c1cncc(-c2cnc(Nc3ccc(F)c(Cl)c3)nc2N2CCCC2)c1` [Example 280, 5-(2-(3-chloro-4-fluorophenylamino)-4-(pyrrolidin-1-yl)pyrimidin-5-yl)nicotinic acid] was 83.4%.

Take `COCCONC(=O)c1cc(-c2cnc(Nc3cc(OC)cc(OC)c3)nc2-n2ccc(C(F)(F)F)n2)cnc1OC` [Example 1168, 5-(2-(3,5-dimethoxyphenylamino)-4-(3-(trifluoromethyl)-1H-pyrazol-1-yl)pyrimidin-5-yl)-2-methoxy-N-(2-methoxyethoxy)nicotinamide]: the inhibition at 13 µM is 100%.

Consider `Cc1cccc(Nc2ncc(-c3cccc(/C=C/C(=O)O)c3)c(-n3nc(C(F)(F)F)cc3C)n2)c1` [Example 695, (2E)-3-(3-{2-[(3-methylphenyl)amino]-4-[5-methyl-3-(trifluoromethyl)-1H-pyrazol-1-yl]pyrimidin-5-yl}phenyl)prop-2-enoic acid], for which the inhibition at 13 µM came to 100%. The value for `OCC1CCCN(c2nc(Nc3ccc(F)c(Cl)c3)ncc2-c2cncnc2)C1` (centres unmarked) [Example 61, [1-[2-[(3-chloro-4-fluorophenyl)amino]-5-pyrimidin-5-ylpyrimidin-4-yl]piperidin-3-yl]methanol] was 74.8%; that for `COc1cc(Nc2ncc(-c3cnc(SC)c(C(=O)NS(C)(=O)=O)c3)c(-n3ccc(C(F)(F)F)n3)n2)cc(OC)c1` [Example 852, 5-{2-[(3,5-dimethoxyphenyl)amino]-4-[3-(trifluoromethyl)-1H-pyrazol-1-yl]pyrimidin-5-yl}-2-(methylsulfanyl)-N-(methylsulfonyl)pyridine-3-carboxamide] was 100%; that for `CON(C)C(=O)c1cccc(-c2cnc(Nc3ccc(F)c(Cl)c3)nc2-n2ccc(C(F)(F)F)n2)c1` [Example 1149, 3-(2-(3-chloro-4-fluorophenylamino)-4-(3-(trifluoromethyl)-1H-pyrazol-1-yl)pyrimidin-5-yl)-N-methoxy-N-methylbenzamide] was 100%. The value for `COc1cc(Nc2ncc(-c3cnc(NCCS(C)(=O)=O)c(C(=O)O)c3)c(-n3ccc(C(F)(F)F)n3)n2)cc(OC)c1` [Example 585, 5-(2-(3,5-dimethoxyphenylamino)-4-(3-(trifluoromethyl)-1H-pyrazol-1-yl)pyrimidin-5-yl)-2-(2-(methylsulfonyl)ethylamino)nicotinic acid] was 100%; that for `CCOC(=O)c1cncc(-c2cnc(Nc3ccc(F)c(Cl)c3)nc2N2CCN(C)CC2)c1` [Example 151, ethyl 5-(2-(3-chloro-4-fluorophenylamino)-4-(4-methylpiperazin-1-yl)pyrimidin-5-yl)nicotinate] was 50.1%; that for `CCOC(=O)c1cn(CCOC)c2ccc(-c3cnc(Nc4ccc(F)c(Cl)c4)nc3NCCCOC)cc2c1=O` [Example 177, ethyl 6-(2-(3-chloro-4-fluorophenylamino)-4-(3-methoxypropylamino)-pyrimidin-5-yl)-1-(2-methoxyethyl)-4-oxo-1,4-dihydroquinoline-3-carboxylate] was 68.9%.

`CS(=O)(=O)N1CCN(c2nc(Nc3ccc(F)c(Cl)c3)ncc2-c2cccc(/C=C/C(=O)O)c2)CC1` [Example 302, (E)-3-(3-(2-(3-chloro-4-fluorophenylamino)-4-(4-(methylsulfonyl)piperazin-1-yl)pyrimidin-5-yl)phenyl)acrylic acid]: the inhibition at 13 µM was 83%. Consider `O=C(O)c1cc(-c2cnc(Nc3ccc(F)c(Cl)c3)nc2-n2ccc(C(F)(F)F)n2)cnc1OCCc1ccncc1` [Example 872, 5-(2-(3-chloro-4-fluorophenylamino)-4-(3-(trifluoromethyl)-1H-pyrazol-1-yl)pyrimidin-5-yl)-2-(2-(pyridin-4-yl)ethoxy)nicotinic acid], for which the inhibition at 13 µM turned out to be 100%. As to `O=C(O)c1cncc(-c2cnc(Nc3ccc(F)c(Cl)c3)nc2-n2cc(Cl)cn2)c1` [Example 309, 5-{2-[(3-chloro-4-fluorophenyl)amino]-4-(4-chloro-1H-pyrazol-1-yl)pyrimidin-5-yl}pyridine-3-carboxylic acid], the inhibition at 13 µM was found to be 69.4%.

Regarding `COCCn1cc(-c2cnc(Nc3cc(OC)cc(OC)c3)nc2-n2nc(C(F)(F)F)cc2C)cc(C(=O)NS(C)(=O)=O)c1=O` [Example 1161, 5-(2-(3,5-dimethoxyphenylamino)-4-(5-methyl-3-(trifluoromethyl)-1H-pyrazol-1-yl)pyrimidin-5-yl)-1-(2-methoxyethyl)-N-(methylsulfonyl)-2-oxo-1,2-dihydropyridine-3-carboxamide], the inhibition at 13 µM is 81%. As for `O=C(O)c1cncc(-c2cnc(Nc3ccc(F)c(Cl)c3)nc2N2CCC(O)C2)c1` (centres unmarked) [Example 250, 5[2-[(3-chloro-4-fluorophenyl)amino]-4-(3-hydroxypyrrolidin-1-yl)pyrimidin-5-yl]pyridine-3-carboxylic acid], the inhibition at 13 µM was 74.4%.

`O=C(O)CCC(=O)Nc1ccc(-c2cnc(Nc3ccc(F)c(Cl)c3)nc2N2CCOCC2)cc1` [Example 478, 4-[(4-{2-[(3-chloro-4-fluorophenyl)amino]-4-(morpholin-4-yl)pyrimidin-5-yl}phenyl)amino]-4-oxobutanoic acid]: the inhibition at 13 µM was determined as 100%. `COc1ncc(-c2cnc(Nc3cc(C)cc(Cl)c3)nc2-n2nc(C(F)(F)F)cc2C)cc1C(=O)NS(C)(=O)=O` [Example 803, 5-{2-[(3-chloro-5-methylphenyl)amino]-4-[5-methyl-3-(trifluoromethyl)-1H-pyrazol-1-yl]pyrimidin-5-yl}-2-methoxy-N-(methylsulfonyl)pyridine-3-carboxamide]: the inhibition at 13 µM worked out at 100%. The value for `Cc1cc(C)n(-c2nc(Nc3ccc(F)c(Cl)c3)ncc2-c2cncnc2)n1` [Example 82, N-(3-chloro-4-fluorophenyl)-4-(3,5-dimethyl-1H-pyrazol-1-yl)-5,5′-bipyrimidin-2-amine] was 80.1%; that for `Cc1cc(C(F)(F)F)nn1-c1nc(Nc2cccc(S(C)(=O)=O)c2)ncc1-c1cccc(/C=C/C(=O)O)c1` [Example 624, (2E)-3-[3-(2-{[3-(methylsulfonyl)phenyl]amino}-4-[5-methyl-3-(trifluoromethyl)-1H-pyrazol-1-yl]pyrimidin-5-yl)phenyl]prop-2-enoic acid] was 89%; that for `Fc1ccc(Nc2ncc(-c3cncnc3)c(-n3ccc(C(F)(F)F)n3)n2)cc1Cl` [Example 71, N-(3-chloro-4-fluorophenyl)-4-[3-(trifluoromethyl)-1H-pyrazol-1-yl]-5,5′-bipyrimidin-2-amine] was 66.7%.

Regarding `CONC(=O)c1cncc(-c2cnc(Nc3ccc(F)c(Cl)c3)nc2-n2cc(-c3ccncn3)cn2)c1` [Example 551, 5-{2-[(3-chloro-4-fluorophenyl)amino]-4-[4-(pyrimidin-4-yl)-1H-pyrazol-1-yl]pyrimidin-5-yl}-N-methoxypyridine-3-carboxamide], the inhibition at 13 µM stood at 100%. The value for `CN(C)CCCNc1nc(Nc2ccc(F)c(Cl)c2)ncc1-c1ccc(C(=O)N2CCCC(F)(F)C2)s1` [Example 370, (5-(2-(3-chloro-4-fluorophenylamino)-4-(3-(dimethylamino)propylamino)pyrimidin-5-yl)thiophen-2-yl) (3,3-difluoro-piperidin-1-yl) methanone] was 129%; that for `COc1cc(Nc2ncc(-c3cnc(OC)c(C(=O)NS(=O)(=O)c4c(C)nn(C)c4C)c3)c(-n3nc(C(F)(F)F)cc3C)n2)cc(OC)c1` [Example 842, 5-{2-[(3,5-dimethoxyphenyl)amino]-4-[5-methyl-3-(trifluoromethyl)-1H-pyrazol-1-yl]pyrimidin-5-yl}-2-methoxy-N-[(1,3,5-trimethyl-1H-pyrazol-4-yl)sulfonyl]pyridine-3-carboxamide] was 97%.

Take `Cc1cccc(Nc2ncc(-c3cncc(C(=O)O)c3)c(-n3nc(C(F)(F)F)cc3C)n2)c1` [Example 711, 5-{2-[(3-methylphenyl)amino]-4-[5-methyl-3-(trifluoromethyl)-1H-pyrazol-1-yl]pyrimidin-5-yl}pyridine-3-carboxylic acid]: the inhibition at 13 µM was 100%. The value for `Cc1ncsc1CCNc1nc(Nc2ccc(F)c(Cl)c2)ncc1-c1cccc(/C=C/C(=O)O)c1` [Example 269, (2E)-3-[3-(2-[(3-chloro-4-fluorophenyl)amino]-4-{[2-(4-methyl-1,3-thiazol-5-yl)ethyl]amino}pyrimidin-5-yl)phenyl]prop-2-enoic acid] was 78%; that for `COCCCNc1nc(Nc2ccc(F)c(Cl)c2)ncc1-c1ccc(C(C)=O)s1` [Example 179, 1-(5-(2-(3-chloro-4-fluorophenylamino)-4-(3-methoxypropylamino)-pyrimidin-5-yl)thiophen-2-yl)ethanone] was 93.9%; that for `COc1cc(C)cc(Nc2ncc(-c3cnc(OC)c(C(=O)NS(C)(=O)=O)c3)c(-n3ccc(C(F)(F)F)n3)n2)c1` [Example 856, 2-methoxy-5-{2-[(3-methoxy-5-methylphenyl)amino]-4-[3-(trifluoromethyl)-1H-pyrazol-1-yl]pyrimidin-5-yl}-N-(methylsulfonyl)pyridine-3-carboxamide] was 100%.
